This assay concerns the target T1, KRas-G12D (Homo sapiens, UniProt P01116, G12D).
T1 construct: insert the HiBiT tag onto the N-terminus of one or more of the endogenous KRas alleles; host or cells: AsPC-1 HiBiT-KRasG12D knock-in clone (one tagged allele, two untagged KRasG12D alleles)
The assay can be described thus: HiBiT Degradation Assay (G12D), AsPC-1 HiBiT-KRasG12D cells, 24 hr. It counts as cell-based. Particulars: for Dmax: ASPC1, AsPC-1 cells, maximum degradation observed; for DC50: AsPC-1 cells. In a few lines:
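Degradation was read after 24 hr compound exposure (0.5% DMSO, 37° C) by Nano-Glo HiBiT lytic luminescence in AsPC-1 cells carrying a HiBiT tag on one of three KRasG12D alleles. Signal relative to DMSO gave DC50 and Dmax by 4-parameter fit; alamar blue fluorescence monitored cytotoxicity.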
On the technique in general: The HiBiT peptide binds its large partner to form an active luciferase.

T1 sequence (P01116 1-188 isoform P01116-2 G12D): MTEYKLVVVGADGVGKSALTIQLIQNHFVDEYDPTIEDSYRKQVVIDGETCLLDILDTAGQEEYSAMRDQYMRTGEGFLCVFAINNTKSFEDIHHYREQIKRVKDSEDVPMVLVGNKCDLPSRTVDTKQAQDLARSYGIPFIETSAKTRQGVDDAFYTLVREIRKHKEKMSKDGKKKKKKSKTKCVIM

As to `C#Cc1c(F)ccc2cc(O)cc(-c3ncc4c(N5CC6CCC(C5)N6)nc(OC[C@H](C)N5CCC(CC6CCN(CC7CCN(c8ccc9c(c8)n(C(C)C)c(=O)n9C8CCC(=O)NC8=O)CC7)CC6)CC5)nc4c3F)c12` (stereo partly drawn) [Compound 195, 3-[5-[4-[[4-[[1-[(1S)-2-[4-(3,8-diazabicyclo[3.2.1]octan-3-yl)-7-(8-ethynyl-7-fluoro-3-hydroxy-1-naphthyl)-8-fluoro-pyrido[4,3-d]pyrimidin-2-yl]oxy-1-methyl-ethyl]-4-piperidyl]methyl]-1-piperidyl]methyl]-1-piperidyl]-3-isopropyl-2-oxo-benzimidazol-1-yl]piperidine-2,6-dione], the Dmax (as a rule, the largest share of the target that was removed) is greater than 70% and the DC50 – broadly, the midpoint of the concentration-degradation curve – was less than 5100 nM.
In turn, `C#Cc1c(F)ccc2cc(O)cc(-c3ncc4c(N5CC6CCC(C5)N6)nc(OCCN5CCC(CN6CCN(CC7CCN(c8ccc9c(c8F)CN(C8CCC(=O)NC8=O)C9=O)CC7)CC6)CC5(C)C)nc4c3F)c12` (centres unmarked) [Compound 168, 3-{5-[4-({4-[(1-{2-[(4-{3,8-diazabicyclo[3.2.1]octan-3-yl}-7-(8-ethynyl-7-fluoro-3-hydroxynaphthalen-1-yl)-8-fluoropyrido[4,3-d]pyrimidin-2-yl)oxy]ethyl}-2,2-dimethylpiperidin-4-yl)methyl]piperazin-1-yl}methyl)piperidin-1-yl]-4-fluoro-1-oxo-2,3-dihydro-1H-isoindol-2-yl}piperidine-2,6-dione] registered a Dmax greater than 70% and a DC50 of less than 5100 nM.
On the same counts, the results for `CCc1c(F)ccc2cc(O)cc(-c3ncc4c(N5CC6CCC(C5)N6)nc(OCCN5CCC(CC6CCN(CC7CCN(c8ccc9c(c8)CN(C8CCC(=O)NC8=O)C9=O)CC7)CC6)CC5)nc4c3F)c12` (centres unmarked) [Compound 86, 3-{5-[4-({4-[(1-{2-[(4-{3,8-diazabicyclo[3.2.1]octan-3-yl}-7-(8-ethyl-7-fluoro-3-hydroxynaphthalen-1-yl)-8-fluoropyrido[4,3-d]pyrimidin-2-yl)oxy]ethyl}piperidin-4-yl)methyl]piperidin-1-yl}methyl)piperidin-1-yl]-1-oxo-2,3-dihydro-1H-isoindol-2-yl}piperidine-2,6-dione] are greater than 70% and less than 5100 nM.
Molecule `CCc1cccc2cc(O)cc(-c3ncc4c(N5CC6CCC(C5)N6C)nc(OC[C@@]56CCCN5[C@H](COC(=O)N5CCN(c7cccc8c7CN(C7CCC(=O)NC7=O)C8=O)CC5)CC6)nc4c3F)c12` (stereo partly drawn) [Compound 49, [(3S,8S)-8-[[7-(8-ethyl-3-hydroxy-1-naphthyl)-8-fluoro-4-(8-methyl-3,8-diazabicyclo[3.2.1]octan-3-yl)pyrido[4,3-d]pyrimidin-2-yl]oxymethyl]-1,2,3,5,6,7-hexahydropyrrolizin-3-yl]methyl 4-[2-(2,6-dioxo-3-piperidyl)-1-oxo-isoindolin-4-yl]piperazine-1-carboxylate] returned a DC50 greater than 1000 nM.
For `CCc1cccc2cc(O)cc(-c3ncc4c(N5CC6CCC(C5)N6)nc(OC[C@@]56CCCN5[C@H](COC(=O)N5CCN(c7cccc8c7CN(C7CCC(=O)N(C)C7=O)C8=O)CC5)CC6)nc4c3F)c12` (stereo partly drawn) [Compound 52, [(3S,8S)-8-[[4-(3,8-diazabicyclo[3.2.1]octan-3-yl)-7-(8-ethyl-3-hydroxy-1-naphthyl)-8-fluoro-pyrido[4,3-d]pyrimidin-2-yl]oxymethyl]-1,2,3,5,6,7-hexahydropyrrolizin-3-yl]methyl 4-[2-(1-methyl-2,6-dioxo-3-piperidyl)-1-oxo-isoindolin-4-yl]piperazine-1-carboxylate], the Dmax was no more than 25% and the DC50 was 250 to 1000 nM.
For `C#Cc1c(F)ccc2cc(O)cc(-c3ncc4c(N5CC6CCC(C5)N6)nc(OC[C@@H]5C[C@@H](OC6CCN(c7ccc8c(c7)CN(C7CCC(=O)NC7=O)C8=O)CC6)CN5C)nc4c3F)c12` (some centres unmarked) [Compound 104], the Dmax was greater than 70% and the DC50 is less than 5100 nM.
Consider `C#Cc1c(F)ccc2cc(O)cc(-c3ncc4c(N5CC6CCC(C5)N6)nc(OCCN5CCC(CC6CCN(CC7CCN(c8ccc9c(c8)n(C(C)C)c(=O)n9C8CCC(=O)NC8=O)CC7)CC6)CC5)nc4c3F)c12` (centres unmarked) [Compound 98, 3-{5-[4-({4-[(1-{2-[(4-{3,8-diazabicyclo[3.2.1]octan-3-yl}-7-(8-ethynyl-7-fluoro-3-hydroxynaphthalen-1-yl)-8-fluoropyrido[4,3-d]pyrimidin-2-yl)oxy]ethyl}piperidin-4-yl)methyl]piperidin-1-yl}methyl)piperidin-1-yl]-2-oxo-3-(propan-2-yl)-2,3-dihydro-1H-1,3-benzodiazol-1-yl}piperidine-2,6-dione], for which the Dmax is greater than 70% and the DC50 is less than 5100 nM.
As for `CCc1cccc2cc(O)cc(-c3ncc4c(N5CC6CCC(C5)N6)nc(OC[C@]56CCCN5[C@@H](COC(=O)N5CCN(c7ccc8c(c7)CN(C7CCC(=O)N(C)C7=O)C8=O)CC5)CC6)nc4c3F)c12` (stereo partly drawn) [Compound 53, [(3R,8R)-8-[[4-(3,8-diazabicyclo[3.2.1]octan-3-yl)-7-(8-ethyl-3-hydroxy-1-naphthyl)-8-fluoro-pyrido[4,3-d]pyrimidin-2-yl]oxymethyl]-1,2,3,5,6,7-hexahydropyrrolizin-3-yl]methyl4-[2-(1-methyl-2,6-dioxo-3-piperidyl)-1-oxo-isoindolin-5-yl]piperazine-1-carboxylate], the DC50 is 100 to 5250 nM.
`C#Cc1c(F)ccc2cc(O)cc(-c3ccc4c(N5CC6CCC(C5)N6)nc(OCCN5CCC(CC6CCN(CC7CCN(c8ccc9c(c8F)CN(C8CCC(=O)NC8=O)C9=O)CC7)CC6)CC5)nc4c3F)c12` (centres unmarked) [Compound 152] returned a DC50 of less than 5100 nM.
On to `CCc1cccc2cc(O)cc(-c3ncc4c(N5CC6CCC(C5)N6)nc(OCCN5CCC(CCCN6CCN(c7ccc8c(c7)C(=O)N(C7CCC(=O)NC7=O)C8=O)CC6)CC5)nc4c3F)c12` (centres unmarked) [Compound 10], for which the DC50 fell in the range of 250 to 1000 nM.
Consider `C#Cc1c(F)ccc2cc(O)cc(-c3ncc4c(N5CC6CCC(C5)N6)nc(OCCN5CCC(C)(CN6CCN(CC7CCN(c8ccc9c(c8)n(C)c(=O)n9C8CCC(=O)NC8=O)CC7)CC6)CC5)nc4c3F)c12` (centres unmarked) [Compound 160, 3-{5-[4-({4-[(1-{2-[(4-{3,8-diazabicyclo[3.2.1]octan-3-yl}-7-(8-ethynyl-7-fluoro-3-hydroxynaphthalen-1-yl)-8-fluoropyrido[4,3-d]pyrimidin-2-yl)oxy]ethyl}-4-methylpiperidin-4-yl)methyl]piperazin-1-yl}methyl)piperidin-1-yl]-3-methyl-2-oxo-2,3-dihydro-1H-1,3-benzodiazol-1-yl}piperidine-2,6-dione], for which the Dmax is greater than 70% and the 50% degradation concentration (DC50) was less than 5100 nM.
`CCc1cccc2cc(O)cc(-c3ncc4c(N5CC6CCC(C5)N6)nc(OCCN5CCN(c6cc(N7CCN(c8ccc9c(c8)C(=O)N(C8CCC(=O)NC8=O)C9=O)CC7)ncn6)CC5)nc4c3F)c12` (centres unmarked) [Compound 5] gave a DC50 greater than 1000 nM.
With `C#Cc1c(F)ccc2cc(O)cc(-c3ncc4c(N5CC6CCC(C5)N6)nc(OCCN5CCC6(CC5)CN(CC5CCN(c7cccc8c7CN(C7CCC(=O)NC7=O)C8=O)CC5)C6)nc4c3F)c12` (centres unmarked) [Compound 135, 3-(4-{4-[(7-{2-[(4-{3,8-diazabicyclo[3.2.1]octan-3-yl}-7-(8-ethynyl-7-fluoro-3-hydroxynaphthalen-1-yl)-8-fluoropyrido[4,3-d]pyrimidin-2-yl)oxy]ethyl}-2,7-diazaspiro[3.5]nonan-2-yl)methyl]piperidin-1-yl}-1-oxo-2,3-dihydro-1H-isoindol-2-yl)piperidine-2,6-dione], the DC50 lay within 250 to 1000 nM.

The values above are taken from patent publication US12448399B2, “Cereblon-based KRAS degrading PROTACs and uses related thereto” (Arvinas Operations, Inc., priority 2023, dated 2025).
